{"source": "patent US20230241088A1", "about": "“COMPOSITION FOR PREVENTING OR TREATING LUNG CANCER COMPRISING ORTHO-TOPOLIN RIBOSIDE AS ACTIVE INGREDIENT” (CHUNG-ANG UNIVERSITY INDUSTRY-ACADEMY COOPERATION FOUNDATION, priority 2022, published 2023)", "key": {"A549": {"system": "A549", "assay": "MTT cell viability assay, A549", "type": "cell-based, Human", "details": "48 hours", "protocol": "(§1) Human NSCLC cell lines A549, H1437, H2087, H522, and HCC827 were obtained from the Korean Cell Line Bank (KCLB, Seoul, Korea). These cells were cultured in RPMI-1640 medium (Gibco, N.Y., USA) supplemented with 10% FBS (Gibco) and 1% penicillin-streptomycin (HyClone Laboratories, Logan, Utah, USA). All cell lines were cultured under standard conditions (5% CO2, humid environment, 37° C.). A549 cells were seeded at a density of 1×10^4 cells/well and H1437, H2087, H522, HCC827, and MRCS cells at a density of 2×10^4 cells/well in 96-well plates and were cultured until cells reach approximately 70-80% confluency. The NSCLC cells were treated with plant hormones for 48 hours. Stock solution of each plant hormone was diluted with culture medium, wherein concentrations of DMSO, water, methanol, and ethanol in the culture medium were below 1% (v/v). The half-maximal inhibitory concentration (IC50) was calculated using CompuSyn software (ComboSyn Inc., Paramus, N.J., USA).\n(§2) The inhibitory effect of plant hormones and their derivatives was investigated on 5 NSCLC cell lines (A549, H1437, H2087, H522, and HCC827). The NSCLC cells were treated with ABA, Cor, ethephon, GR-24, IAA, KR, MJ, N6b, N6i, oTR, and SS-HCS at concentrations of 0.1, 0.5, 1, 5, 10, 50, and 100 μM. Cell viability and IC50 values for 48 hours were investigated by performing the MTT assay."}, "H1437": {"system": "H1437", "assay": "MTT cell viability assay, H1437", "type": "cell-based, Human", "details": "48 hours", "protocol": "as §1, §2"}, "H2087": {"system": "H2087", "assay": "MTT cell viability assay, H2087", "type": "cell-based, Human", "details": "48 hours", "protocol": "as §1, §2"}, "xenograft tumor tissues": {"system": "xenograft tumor tissues", "assay": "GC-MS and nanoESI-MS metabolite and lipid profiling of xenograft tumor tissues", "type": "in vivo, nude mice (female, BALB/cSlc-nu/nu)", "protocol": "The tumor tissue was weighed above 25 mg, and 0.3 mL of ice-cold methanol containing 0.1% BHT was added, followed by homogenization for 1 minutes. Homogenized samples were centrifuged at 10,000×g for 15 minutes at 4° C. The supernatant corresponding to 10 mg of the tissue was used, and metabolites and lipids were extracted using modified Folch method.\nTo perform metabolite and lipid analyses of the extracted samples of NSCLC cells and xenograft tumor tissues, GC-MS and nanoESI-MS analyses were conducted according to a previously described method. For quality control (QC), the equal volume of mixture was taken from each sample to be analyzed.\nRaw data files of the lipid analysis (*.raw) were converted into *.mzXML format using the Proteo Wizard MSConvert software. The metabolite and lipid mass spectra were converted using the Expressionist® MSX software (version 2013.0.39, Genedata, Basel, Switzerland) for data processing. The data obtained from NSCLC cells were divided by the peak intensity of the internal standard and total protein content for normalization. The data obtained from the NSCLC xenograft model were divided by the peak intensity of the internal standard for normalization. The data obtained thereby were used for fold-change analysis using the MetaboAnalyst (version 5.0; http://www.metaboanalyst.ca). SPSS software (version 26, IBM, Somers, N.Y.) was used for significance examination for the results, and identification was conducted by Student's t-test and Mann-Whitney test. All data were mean-centered and pretreated to Pareto scaling for principal component analysis (PCA) and orthogonal partial least-squares discriminant analysis (OPLS-DA), performed using the SIMCA-P software (version 15.0.2, Sartorius Stedim Data Analytics AB, Umea, Sweden). Cross validations and permutation tests (100 times) were performed to evaluate the goodness of fit value and predictability of the OPLS-DA model. Volcano plots were generated using the GraphPad Prism 9.0.\noTR-induced alterations of metabolic and lipidomic profiles were analyzed using 5 NSCLC cell lines (A549, H1437, H2087, H522, and HCC827) and xenograft tumor tissues by performing GC-MS and nanoESI-MS analyses. The relative changes in identified metabolites and intact lipid species are shown as fold-changes. Myo-inositol, amino acids (β-alanine, aspartate, serine, threonine, glutamate, glycine, proline, and tyrosine), organic acids (malate and lactate), pyrimidines (uracil and uridine), creatinine, hypoxanthine, and putrescine decreased in oTR-treated NSCLC cells compared to those in NSCLC cells. These metabolites were the outcomes of consistent and significant alterations in 3 NSCLC cell lines compared to those of respective controls."}, "A549 cells [1]": {"system": "A549 cells", "assay": "Mitochondrial function analysis (Seahorse XFe24, OCR)", "type": "cell-based, Human", "protocol": "Mitochondrial and glycolytic functions were assessed using Seahorse XFe24 analyzer (Agilent Technologies, Lexington, Mass., USA). A549 cells were seeded in a cell culture plate at a density of 1.5×10^4 cells/well. Cells were treated with oTR (5, 10, and 50 μM) for 48 hours after achieving approximately 70-80% confluency. The glycolytic and mitochondrial functions were determined by measuring the proton efflux rate (PER) and oxygen consumption rate (OCR), respectively. Glycolytic PER (glycoPER) was obtained by subtracting mitochondria-derived protons from the total PER. The analyses were conducted according to the manufacturer's instructions.\nTo measure ATP production, oligomycin, an ATPase inhibitor, was added to the cells to inhibit mitochondria-derived ATP synthesis. Then, when carbonyl cyanide-4-(trifluoromethoxy)phenylhydrazone (FCCP), a mitochondrial oxidative phosphorylation uncoupler, was added to the cells, the OCR reached the maximal level, indicating maximal mitochondrial respiration. Spare respiratory capacity (SRC) indicates the amount of extra ATP produced by oxidative phosphorylation when energy demand of the cells increases suddenly. […] To determine the mitochondrial fuel source (glucose, glutamine, and fatty acid) that was better utilized in NSCLC cells, investigation was performed on the OCR of each fuel source in the absence and presence of each inhibitor. UK5099 (for glucose), BPTES (for glutamine), and etomoxir (for fatty acid)."}, "A549 cells [2]": {"system": "A549 cells", "assay": "Annexin V-FITC/propidium iodide flow cytometric apoptosis analysis", "type": "cell-based, Human", "details": "48 hours", "protocol": "To detect apoptotic cells, flow cytometric analysis was performed using Annexin V-FITC/propidium iodide double staining of NSCLC cells. A549 cells (4×10^5) were grown to approximately 70-80% confluency in 60 mm dish and treated with oTR (5, 10, and 50 μM) for 48 hours. The cells were stained using the FITC Annexin V Apoptosis Detection Kit (556547, BD Biosciences, Franklin Lakes, N.J., USA) as previously described."}, "[3]": {"system": "A549 cells tumor xenograft", "details": "for tumor volume compared to control group: after the second treatment (day 7)", "experimental": "To evaluate the anticancer effect of oTR in tumor tissues, a tumor xenograft model was established by injecting 2.5×10^6 A549 cells into the flanks of nude mice (female, BALB/cSlc-nu/nu). After the tumor volume reached above 100 mm^3 after approximately 3 weeks, the mice were randomized into negative controls and experimental groups (5 mice were used per group). Mice were then injected with oTR solution into the tumor area twice a week for 3 weeks. oTR was dissolved in saline:DMSO (1:1, v/v), and 50 μL of oTR solution was injected into mice in a dose of 100 mg/kg or 150 mg/kg. […] Negative controls were injected with saline:DMSO (1:1, v/v) without oTR. Tumor volume, mouse body weight, and mouse survival were recorded twice a week before injecting oTR. Tumor length (a) and width (b) were measured using calipers and tumor volume (mm^3) was calculated by =(a×b^2)/2.\nTumor xenograft mice were treated with oTR at two doses (100 mg/kg and 150 mg/kg). The tumor volume was measured twice a week for 3 weeks to evaluate the therapeutic effects of the drug in vivo."}, "[4]": {"details": "both oTR groups (100 and 150 mg/kg)"}}, "note": "“And” between values parts separate entries of the source, which are not always exact repeats. Identical values can stand only once. Like-named read-outs stand apart in the source and are kept apart here.", "data": [{"smiles": "OC[C@H]1O[C@@H](n2cnc3c(NCc4ccccc4O)ncnc32)[C@H](O)[C@@H]1O", "note": "[oTR, ortho topolin riboside]", "values": [{"measurement": "IC50", "setting": "A549", "value": "34.3 ± 4.4", "unit": "µM"}, {"measurement": "IC50", "setting": "H1437", "value": "50 ± 6.55", "unit": "µM"}, {"measurement": "IC50", "setting": "H2087", "value": "51.4 µM and 26.1 µM"}, {"measurement": "PC, PE, PG, and PI species levels", "setting": "xenograft tumor tissues; 100 mg/kg and 150 mg/kg", "value": "increase"}, {"measurement": "PS species levels", "setting": "xenograft tumor tissues; 150 mg oTR-treated group vs control", "value": "increased"}, {"measurement": "level of aspartate, ascorbate, glucose, glutamate, ornithine, phenylalanine, proline, serine, threonine", "setting": "xenograft tumor tissues; 150 mg/kg group vs control", "value": "significant reduction"}, {"measurement": "citrate, ornithine, and uridine levels", "setting": "xenograft tumor tissues; [4]", "value": "significantly decreased"}, {"measurement": "β-alanine, aminomalonate, glycerol, glycine, and uracil levels", "setting": "xenograft tumor tissues; [4]", "value": "increased"}, {"measurement": "glucose oxidation (mitochondrial fuel capacity)", "setting": "A549 cells [1]; oTR 10 μM, FIG. 5C", "value": "did not differ"}, {"measurement": "glutamine and fatty acid oxidations (mitochondrial fuel capacity)", "setting": "A549 cells [1]; oTR 10 μM, FIG. 5C", "value": "significantly reduced"}, {"measurement": "OCR (oxygen consumption rate)", "setting": "A549 cells [1]; oTR 5, 10, and 50 μM, 48 hours, FIG. 5B", "value": "reduced"}, {"measurement": "basal OCR, ATP production, and SRC", "setting": "A549 cells [1]; oTR-treated vs untreated A549 cells", "value": "Significant reduction"}, {"measurement": "increase in percentage of late apoptotic cells compared to untreated NSCLC cells", "setting": "A549 cells [2]; 10 μM oTR", "value": "5.70±0.16", "unit": "%"}, {"measurement": "increase in percentage of late apoptotic cells compared to untreated NSCLC cells", "setting": "A549 cells [2]; 50 μM oTR", "value": "24.56±9.37", "unit": "%"}, {"measurement": "dose dependence of oTR-induced changes in tumor volume", "setting": "[3]; 100 mg/kg vs 150 mg/kg", "value": "did not decrease in a dose-dependent manner"}, {"measurement": "tumor volume compared to control group", "setting": "[3]; 100 mg/kg", "value": "significantly decreased"}, {"measurement": "tumor volume compared to control group", "setting": "[3]; 150 mg/kg", "value": "significantly decreased"}, {"measurement": "reduction of body weight relative to initial body weight", "setting": "[3]; mouse, in vivo", "value": "≤ 5", "unit": "%"}]}]}
